According to US10538491B2, “4,5-substituted picolinamide and picolinonitrile metabotropic glutamate receptor 2 negative allosteric modulators” (Vanderbilt University, priority 2015, dated 2020):
Read-outs that look alike come from different tables or passages of the source.

How the values were obtained:
[1] = tested on: group II mGlu receptors (mGlu2 and mGlu3); conditions: cited from earlier work
[2] = target: rat mGlu2 (Rattus norvegicus (Rat), UniProt P31421); assay: mGlu2 Ca2+ flux assay; assay type: cell-based; conditions: for IC50: Gα15 HEK293 cells stably expressing rat mGlu2, glutamate EC80, >10,000 = no plateau, >30,000 = no measurable activity; for rat mGlu2 Glu max / remaining activity at 30 µM: amplitude of response in the presence of 30 μM test compound as percentage of maximal response to glutamate; for remaining activity at 30 µM: read-out: rat mGlu2 Glu max
Procedure, shortened: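 Gα15 HEK293 cells stably expressing rat mGlu2, Fluo-4 loaded; compound added, then glutamate at EC20 after 2.3 min and EC80 afterward, calcium flux read as F/F0. Peak amplitude around EC80 addition normalized to glutamate max; IC50 by unconstrained 4-parameter fit, top concentration 30 μM.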

[3] = tested on: central mGlu2 and mGlu3 receptors; conditions: in vivo; cited from earlier work
[4] = tested on: mice; conditions: cited from earlier work
[5] = tested on: rat; conditions: rat FST, normal animals; cited from earlier work
[6] = tested on: C57Bl6/J mice; conditions: FST; cited from earlier work
[7] = tested on: Helpless (H) mice; conditions: cited from earlier work; for activity in the tail suspension test: Helpless (H) mice
[8] = tested on: Aβ-induced neurodegeneration; conditions: cited from earlier work
[9] = tested on: mouse; conditions: mouse TST, normal animals; cited from earlier work
[10] = treatment for 7 days; cited from earlier work
[11] = tested on: olfactory bulbectomized rats; conditions: repeated administration for 14 days; cited from earlier work
[12] = tested on: social isolation reared mice; conditions: cited from earlier work
[13] = CFS model; cited from earlier work

Chain of rat mGlu2 (P31421 19-872): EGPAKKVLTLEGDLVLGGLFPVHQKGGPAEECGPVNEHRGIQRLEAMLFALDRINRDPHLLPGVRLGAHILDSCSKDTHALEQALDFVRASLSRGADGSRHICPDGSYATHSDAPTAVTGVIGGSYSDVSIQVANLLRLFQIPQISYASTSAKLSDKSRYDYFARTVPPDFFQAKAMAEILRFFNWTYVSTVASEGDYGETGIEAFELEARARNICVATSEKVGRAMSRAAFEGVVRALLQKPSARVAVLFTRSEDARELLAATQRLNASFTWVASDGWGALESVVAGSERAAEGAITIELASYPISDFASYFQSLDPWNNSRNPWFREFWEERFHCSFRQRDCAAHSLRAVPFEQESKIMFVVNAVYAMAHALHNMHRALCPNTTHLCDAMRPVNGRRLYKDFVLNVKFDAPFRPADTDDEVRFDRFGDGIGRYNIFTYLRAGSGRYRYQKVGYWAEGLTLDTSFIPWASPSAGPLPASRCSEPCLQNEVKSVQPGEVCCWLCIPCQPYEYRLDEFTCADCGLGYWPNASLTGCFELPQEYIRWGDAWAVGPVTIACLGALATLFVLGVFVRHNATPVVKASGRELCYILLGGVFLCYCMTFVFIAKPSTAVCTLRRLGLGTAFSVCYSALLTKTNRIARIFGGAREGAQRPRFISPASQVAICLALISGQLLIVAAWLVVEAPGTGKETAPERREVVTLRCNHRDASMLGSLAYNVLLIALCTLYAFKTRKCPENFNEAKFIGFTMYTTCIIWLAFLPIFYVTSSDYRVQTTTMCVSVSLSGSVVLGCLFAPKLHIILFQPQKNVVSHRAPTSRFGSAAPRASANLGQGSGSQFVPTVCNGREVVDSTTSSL

CCCCCCCOC(=O)[C@@]1(F)[C@@H]2C[C@@H](OCc3ccc(Cl)c(Cl)c3)[C@@](N)(C(=O)O)[C@@H]21 [BCI-838]
duration of inhibition of group II mGlu receptors by brain concentration of active metabolite BCI-632 ([1]; once-daily dosing of oral prodrug): 22 h | learning and memory impairment ([1]; three months of treatment, Dutch APP transgenic mice): reversed Dutch APP transgene-associated learning and memory impairment | levels of monomeric and oAβ peptides in hippocampus and cortex ([1]; three months of treatment, two AD mouse models): decreased the levels of monomeric and oAβ peptides | anxiolytic effects ([1]; three months of treatment): anxiolytic effects | hippocampal progenitor cell proliferation ([1]; wild-type and Alzheimer's diseased mice, 3 months): stimulated hippocampal progenitor cell proliferation

Cc1ccc(OC2CCN(c3cnc(C(N)=O)cc3-c3ccc(F)cc3)CC2)cn1 [Compound 139, 4-(4-fluorophenyl)-5-(4-((6-methylpyridin-3-yl)oxy)piperidin-l-yl)picolinamide]
IC50 [2]: 9590 nM | rat mGlu2 Glu max [2]: 7.04%

NC(=O)c1cc(-c2ccc(F)cc2)c(N2CCC(Oc3cccnc3)CC2)cn1 [Compound 140, 4-(4-fluorophenyl)-5-(4-(pyridin-3-yloxy)piperidin-1-yl)picolinamide]
IC50 [2]: > 10000 nM | remaining activity at 30 µM [2]: 29.8%

NC(=O)c1cc(-c2ccc(F)cc2)c(N2CC(Oc3ccc(C(F)(F)F)nc3)C2)cn1 [Compound 141, 4-(4-fluorophenyl)-5-(3-((6-(trifluoromethyl)pyridin-3-yl)oxy)azetidin-1-yl)picolinamide]
IC50 [2]: > 10000 nM | remaining activity at 30 µM [2]: 53.9%

Cc1ccc(OC2CN(c3cnc(C(N)=O)cc3-c3ccc(F)cc3)C2)cn1 [Compound 142, 4-(4-fluorophenyl)-5-(3-((6-methylpyridin-3-yl)oxy)azetidin-1-yl)picolinamide]
IC50 [2]: 1280 nM | remaining activity at 30 µM [2]: 2.35%

NC(=O)c1cc(-c2ccc(F)cc2)c(N2CC(Oc3cccnc3)C2)cn1 [Compound 143, 4-(4-fluorophenyl)-5-(3-(pyridin-3-yloxy)azetidin-1-yl)picolinamide]
IC50 [2]: 2030 nM | remaining activity at 30 µM [2]: 7.01%

NC(=O)c1cc(-c2ccc(F)cc2)c(N2CCC(Oc3ccnc(C(F)(F)F)c3)C2)cn1 (stereo not drawn) [Compound 144, 4-(4-fluorophenyl)-5-(3-((2-(trifluoromethyl)pyridin-4-yl)oxy)pyrrolidin-1-yl)picolinamide]
IC50 [2]: 7450 nM | remaining activity at 30 µM [2]: 1.28%

N#Cc1cccc(COc2cnc(C(N)=O)cc2-c2ccc(F)cc2)c1 [Compound 145, 5-((3-Cyanobenzyl)oxy)-4-(4-fluorophenyl)picolinamide]
IC50 [2]: 429 nM | remaining activity at 30 µM [2]: 1.5%

N#Cc1cc(F)cc(COc2cnc(C(N)=O)cc2-c2ccc(F)cc2)c1 [Compound 146, 5-((3-cyano-5-fluorobenzyl)oxy)-4-(4-fluorophenyl)picolinamide]
IC50 [2]: 944 nM | remaining activity at 30 µM [2]: 0.48%

N#Cc1ccc(F)c(COc2cnc(C(N)=O)cc2-c2ccc(F)cc2)c1 [Compound 147, 5-((5-cyano-2-fluorobenzyl)oxy)-4-(4-fluorophenyl)picolinamide]
IC50 [2]: 313 nM | remaining activity at 30 µM [2]: 0.73%

N#Cc1cc(COc2cnc(C(N)=O)cc2-c2ccc(F)cc2)ccc1F [Compound 148, 5-((3-cyano-4-fluorobenzyl)oxy)-4-(4-fluorophenyl)picolinamide]
IC50 [2]: 1680 nM | remaining activity at 30 µM [2]: 0.43%

N#Cc1cccc(COc2cnc(C(N)=O)cc2-c2ccc(F)cc2)c1F [Compound 149, 5-((3-cyano-2-fluorobenzyl)oxy)-4-(4-fluorophenyl)picolinamide]
IC50 [2]: 254 nM | remaining activity at 30 µM [2]: 1.66%

N#Cc1ccccc1COc1cnc(C(N)=O)cc1-c1ccc(F)cc1 [Compound 150, 5-((2-cyanobenzyl)oxy)-4-(4-fluorophenyl)picolinamide]
IC50 [2]: 98 nM | remaining activity at 30 µM [2]: 1.14%

N#Cc1cncc(COc2cnc(C(N)=O)cc2-c2ccc(F)cc2)c1 [Compound 151]
IC50 [2]: 683 nM | rat mGlu2 Glu max [2]: 2.05%

N#Cc1cccc(OCCOc2cnc(C(N)=O)cc2-c2ccc(F)cc2)c1 [Compound 152, 5-(2-(3-cyanophenoxy)ethoxy)-4-(4-fluorophenyl)picolinamide]
IC50 [2]: 1220 nM | remaining activity at 30 µM [2]: 1.44%

N#Cc1cc(F)cc(OCCOc2cnc(C(N)=O)cc2-c2ccc(F)cc2)c1 [Compound 153, 5-(2-(3-cyano-5-fluorophenoxy)ethoxy)-4-(4-fluorophenyl)picolinamide]
IC50 [2]: 1370 nM | remaining activity at 30 µM [2]: 1.58%

N#Cc1cc(OCCOc2cnc(C(N)=O)cc2-c2ccc(F)cc2)ccc1F [Compound 154, 5-(2-(3-cyano-4-fluorophenoxy)ethoxy)-4-(4-fluorophenyl)picolinamide]
IC50 [2]: 1390 nM | remaining activity at 30 µM [2]: 4.19%

N#Cc1cccc(OCCOc2cnc(C(N)=O)cc2-c2ccc(F)cc2)c1F [Compound 155, 5-(2-(3-cyano-2-fluorophenoxy)ethoxy)-4-(4-fluorophenyl)picolinamide]
IC50 [2]: 528 nM | remaining activity at 30 µM [2]: 1.07%

N#Cc1ccc(F)c(OCCOc2cnc(C(N)=O)cc2-c2ccc(F)cc2)c1 [Compound 156, 5-(2-(5-cyano-2-fluorophenoxy)ethoxy)-4-(4-fluorophenyl)picolinamide]
IC50 [2]: 4230 nM | remaining activity at 30 µM [2]: -21.7%

N#Cc1cncc(OCCOc2cnc(C(N)=O)cc2-c2ccc(F)cc2)c1 [Compound 157, 5-(2-((5-cyanopyridin-3-yl)oxy)ethoxy)-4-(4-fluorophenyl)picolinamide]
IC50 [2]: 691 nM | remaining activity at 30 µM [2]: 4.33%

N[C@](CC1c2ccccc2Oc2ccccc21)(C(=O)O)[C@H]1C[C@@H]1C(=O)O [LY341495]
hypolocomotor effect of mGlu2/3 agonist (LY379268) [3]: achieved the same result | marble-burying behavior [4]: significantly reduce marble-burying behavior | antidepressant-like effects [5]: Antidepressant-like effects | immobility time [6]: dose-dependently reduced immobility time | activity in the tail suspension test [7]: active | antidepressant effect in helpless mice ([7]; acute administration): potent antidepressant effect | effect on LY566332-amplified Aβ-induced neurodegeneration [8]: prevented | antidepressant-like effects [9]: Antidepressant-like effects

CCS(=O)(=O)N(Cc1cccnc1)c1cccc(-c2ccc(C#N)cc2)c1 [LY566332]
Aβ-induced neurodegeneration [8]: amplified Aβ-induced neurodegeneration

N[C@]1(C(=O)O)[C@H]2[C@@H](C[C@H]1OCc1ccc(Cl)c(Cl)c1)[C@]2(F)C(=O)O [MGS0039]
number of escape failures [10]: significantly reduced the number of escape failures | marble-burying behavior [4]: reduced marble-burying behavior | spontaneous locomotor activity [4]: no significant change | antidepressant-like effects [5]: Antidepressant-like effects | hyperactivity in the open field test [11]: attenuated the hyperactivity | learning deficit in the passive avoidance test [11]: attenuated the learning deficit | immobility in the FST [12]: reversed the increased immobility | antidepressant-like effects [9]: Antidepressant-like effects | freezing behavior [13]: significantly decreased freezing behavior

Cc1cc(-c2cccc(C3=Nc4cc(C)c(C(F)(F)F)cc4NC(=O)C3)c2)cc(C)n1 [RO4491533]
hypolocomotor effect of mGlu2/3 agonist (LY379268) [3]: reversed the hypolocomotor effect | immobility time [6]: dose-dependently reduced immobility time | activity in the tail suspension test [7]: active

CN1C(=O)CN=C(c2ccccc2)c2cc(Cl)ccc21 [diazepam]
freezing behavior [13]: significantly decreased freezing behavior

CNCCC(Oc1ccc(C(F)(F)F)cc1)c1ccccc1 (stereo not drawn) [fluoxetine]
antidepressant effect in helpless mice ([7]; chronic (21 days) treatment): full antidepressant effect
